One may read the pIC50 as the IC50 on a negative log10 scale, so that one unit is a factor of ten.

Here are results for 30 compounds from US20140057950A1, “DERIVATIVES OF ENGLERIN FOR THE TREATMENT OF CANCER” (MAX-PLANCK-GESELLSCHAFT ZUR FORDERUNG DE WISSENSCHAFTEN E.V., priority 2010, published 2014).

This assay deals with human kidney carcinoma cell line A498. Put plainly: Cell proliferation assay (WST-1), A498. The format is cell-based. The settings on record: A498 cells, 48 hours treatment. As to the method: A498 cells were purchased from German Collection of Microorganisms and Cell Cultures, Germany. RC-124 cell line was purchased from CLS, Germany. Minimum Essential Medium (MEM), McCoy's 5a and Dulbecco's Modified Eagle's Medium (DMEM) were purchased from PAA, Austria. Fetal calf serum was purchased from Invitrogen, Germany. Non-essential amino acids and sodium pyruvate were purchased from Sigma-Aldrich, Germany.
The human kidney carcinoma cell line A498 was cultured in Minimum Essential Medium (MEM, with Earl's salts). The African green monkey cell line BSC-1 and the human embryonic kidney cell line HEK293 were maintained in Dulbecco's Modified Eagle's Medium (DMEM). The human kidney cell line RC-124 was cultured in McCoy's 5a medium. All media were supplemented with 10% fetal calf serum and penicillin and streptomycin. The cells were maintained at 37° C. in a 5% CO2 humidified atmosphere. Cells were discarded after 20 passages.
Cell proliferation was determined as a function of the metabolic activity by means of the cell proliferation reagent WST-1 (Roche, Mannheim Germany). 4000 cells were seeded in quadruplicates into the wells of 96 well plates and were allowed to attach for 24 hours prior to treatment with different compound concentrations for 48 hours. All samples contained 0.1% DMSO. After the treatment, the WST-1 reagent was added to the cells according to the manufacturer's protocol. The absorbance was measured with the Inifinite® M200 plate reader (Tecan, Austria) at 450/690 nm. Mean values (n=4) were used to generate dose-response curves by fitting to a four-parameter IC50 equation. The IC50 values for each compound were calculated with the software GraFit 5.0.
The following IC50 values were obtained for the human kidney carcinoma cell line A498. Very similar IC50 values were obtained for the African green monkey cell line BSC-1, the human embryonic kidney cell line HEK293 and the human kidney cell line RC-124.
(Formazan colour is commonly taken as a measure of viable cells.)

pIC50: −log10 of the molar value. A value given as a limit tells only on which side of the number the result lay.

The compound `CCC12C[C@@H](OC(=O)CO)[C@@](C)(O1)[C@@H]1CC[C@@H](C)[C@H]1[C@@H]2OC(=O)/C=C/c1ccccc1` [Compound 13] had a pIC50 of 5.30 to 6.30. The same measure for `C[C@@H]1CC[C@@H]2[C@@H]1[C@H](OC(=O)/C=C/c1ccccc1)[C@]1(C)C[C@@H](OC(=O)CO)[C@@]2(C)O1` [Compound 14]: 5.30 to 6.30; for `CC(C)C12C[C@@H](OC(=O)CO)[C@@](C)(O1)[C@@H]1CC[C@@H](C)[C@H]1[C@@H]2OC(=O)/C=C/C1CCCCC1` [Compound 15]: greater than 7.52. The same measure for `CC(C)C12C[C@@H](OC(=O)CO)[C@@](C)(O1)[C@@H]1CC[C@@H](C)[C@H]1[C@@H]2OC(=O)c1ccc2ccccc2c1` [Compound 16]: greater than 7.52; for `C/C(=C\C(=O)O[C@H]1[C@@H]2[C@H](C)CC[C@H]2[C@]2(C)OC1(C(C)C)C[C@H]2OC(=O)CO)c1ccccc1` [Compound 17]: greater than 7.52; for `CC(C)C12C[C@@H](OC(=O)CO)[C@@](C)(O1)[C@@H]1CC[C@@H](C)[C@H]1[C@@H]2OC(=O)/C=C/c1ccc(F)cc1` [Compound 18]: 5.30 to 6.30.

Regarding `CC(C)C12C[C@@H](OC(=O)CO)[C@@](C)(O1)[C@@H]1CC[C@@H](C)[C@H]1[C@@H]2OC(=O)/C=C/c1ccc(Cl)cc1` [Compound 19], the pIC50 is 5.30 to 6.30. The same measure for `CC(C)C12C[C@@H](OC(=O)CO)[C@@](C)(O1)[C@@H]1CC[C@@H](C)[C@H]1[C@@H]2OC(=O)/C=C/c1ccc2c(c1)OCO2` [Compound 23]: 5.30 to 6.30.

As to `CC(C)C12C[C@@H](OC(=O)CO)[C@@](C)(O1)[C@@H]1CC[C@@H](C)[C@H]1[C@@H]2OC(=O)/C=C/c1c(F)cccc1Cl` [Compound 24], the pIC50 is 7.00 to 7.52. For the compound `C/C(=C\c1ccccc1)C(=O)O[C@H]1[C@@H]2[C@H](C)CC[C@H]2[C@]2(C)OC1(C(C)C)C[C@H]2OC(=O)CO` [Compound 26], the negative logarithm of the IC50 (pIC50) was 5.30 to 6.30. The same measure for `CC(C)C12C[C@@H](OC(=O)CO)[C@@](C)(O1)[C@@H]1CC[C@@H](C)[C@H]1[C@@H]2OC(=O)c1ccc(Cl)cc1` [Compound 29]: 5.30 to 6.30. The same measure for `CC(C)C12C[C@@H](OC(=O)CO)[C@@](C)(O1)[C@@H]1CC[C@@H](C)[C@H]1[C@@H]2OC(=O)c1ccc([N+](=O)[O-])cc1` [Compound 30]: 5.30 to 6.30; for `CC(C)C12C[C@@H](OC(=O)CO)[C@@](C)(O1)[C@@H]1CC[C@@H](C)[C@H]1[C@@H]2OC(=O)c1ccc(Cl)c(Cl)c1` [Compound 31]: 6.30 to 7.00. With `CC(C)[C@@]12C[C@@H](OC(=O)CO)C(C)(O1)[C@@H]1CC[C@@H](C)[C@H]1[C@@H]2OC(=O)c1ccc2c(c1)CCCC2` [Compound 36], the pIC50 is greater than 7.52. The same measure for `CC(C)[C@@]12C[C@@H](OC(=O)CO)C(C)(O1)[C@@H]1CC[C@@H](C)[C@H]1[C@@H]2OC(=O)C1CCc2ccccc2C1` (stereo partly drawn) [Compound 37]: 7.00 to 7.52; for `CC(C)[C@@]12C[C@@H](OC(=O)CO)C(C)(O1)[C@@H]1CC[C@@H](C)[C@H]1[C@@H]2OC(=O)C1CCC2CCCCC2C1` (stereo partly drawn) [Compound 38]: 7.00 to 7.52; for `Cc1c(C(=O)O[C@H]2[C@@H]3[C@H](C)CC[C@H]3C3(C)O[C@@]2(C(C)C)C[C@H]3OC(=O)CO)ccc2ccccc12` [Compound 39]: greater than 7.52. The same measure for `Cc1c(C(=O)O[C@H]2[C@@H]3[C@H](C)CC[C@H]3C3(C)O[C@@]2(C(C)C)C[C@H]3OC(=O)CO)ccc2c1CCCC2` [Compound 40]: greater than 7.52. The same measure for `CC(C)[C@@]12C[C@@H](OC(=O)CO)C(C)(O1)[C@@H]1CC[C@@H](C)[C@H]1[C@@H]2OC(=O)c1ccc(C2(C(F)(F)F)N=N2)cc1` [Compound 41]: 7.00 to 7.52. The compound `COCC(=O)O[C@@H]1C[C@]2(C(C)C)OC1(C)[C@@H]1CC[C@@H](C)[C@H]1[C@@H]2OC(=O)/C=C/c1ccccc1` [Compound 43] had a negative logarithm of the IC50 (pIC50) of 5.30 to 6.30.

Turning to `C#CCCCC(=O)OCC(=O)O[C@@H]1C[C@]2(C(C)C)OC1(C)[C@@H]1CC[C@@H](C)[C@H]1[C@@H]2OC(=O)/C=C/c1ccccc1` [Compound 44], the pIC50 is 6.30 to 7.00. The same measure for `C#CCCCC(=O)O[C@@H]1C[C@]2(C(C)C)OC1(C)[C@@H]1CC[C@@H](C)[C@H]1[C@@H]2OC(=O)/C=C/c1ccccc1` [Compound 45]: 5.30 to 6.30; for `C#CCOCC(=O)O[C@@H]1C[C@]2(C(C)C)OC1(C)[C@@H]1CC[C@@H](C)[C@H]1[C@@H]2OC(=O)/C=C/c1ccccc1` [Compound 46]: 5.30 to 6.30; for `CC(C)C12C[C@@H](OC(=O)[C@H](C)O)[C@@](C)(O1)[C@@H]1CC[C@@H](C)[C@H]1C2OC(=O)/C=C/c1ccccc1` (stereo partly drawn) [Compound 52]: 5.30 to 6.30. On to `CC(C)C12C[C@@H](OC(=O)[C@@H](C)O)[C@@](C)(O1)[C@@H]1CC[C@@H](C)[C@H]1C2OC(=O)/C=C/c1ccccc1` (stereo partly drawn) [Compound 53], for which the pIC50 is 6.30 to 7.00. The same measure for `CC(C)C12C[C@@H](OC(=O)[C@H](C)O)[C@@](C)(O1)[C@@H]1CC[C@@H](C)[C@H]1C2OC(=O)c1ccc2ccccc2c1` (stereo partly drawn) [Compound 54]: 6.30 to 7.00; for `CC(C)C12C[C@@H](OC(=O)[C@@H](C)O)[C@@](C)(O1)[C@@H]1CC[C@@H](C)[C@H]1C2OC(=O)c1ccc2ccccc2c1` (stereo partly drawn) [Compound 55]: 7.00 to 7.52; for `C#CC[C@@H](O)C(=O)O[C@@H]1CC2(C(C)C)O[C@@]1(C)[C@@H]1CC[C@@H](C)[C@H]1C2OC(=O)c1ccc2c(c1)CCCC2` (stereo partly drawn) [Compound 56]: 5.30 to 6.30. The same measure for `C#CC[C@@H](O)C(=O)O[C@@H]1CC2(C(C)C)O[C@@]1(C)[C@@H]1CC[C@@H](C)[C@H]1C2OC(=O)c1ccc2ccccc2c1` (stereo partly drawn) [Compound 57]: 5.30 to 6.30; for `C#CC[C@@H](O)C(=O)O[C@@H]1CC2(C(C)C)O[C@@]1(C)[C@@H]1CC[C@@H](C)[C@H]1C2OC(=O)c1ccc(C2(C(F)(F)F)N=N2)cc1` (stereo partly drawn) [Compound 58]: 5.30 to 6.30.
